Experimental data from patent US20250122210A1, “SMALL MOLECULE INHIBITORS OF KRAS G12D MUTANT” (DANA-FARBER CANCER INSTITUTE, INC., priority 2021, published 2025).

Assays:
Assay type in all cases: cell-based
AGS cells = test: Anti-proliferative activity in AGS cells (CellTiter-Glo); settings: Homo sapiens, 72 h, AGS cells (KRAS G12D), three days, read-out: IC50 (cell viability)
Procedure: AGS cells were treated with KRAS inhibitors at the density of 800 cells/well in 384-well plate for three days. Cell viability was evaluated using CelITiter-Glo® Luminescent Cell Viability Assay. […] AGS cells harbor KRAS G12D mutation. The improved antiproliferation effects of the compounds indicate stronger inhibition towards G12D mutation.

[1] = tested on: p-ERK in PC-9 cells (KRAS wild-type); test: Downstream evaluation in PC-9 cells (p-ERK immunoblot); settings: Homo sapiens, 8 h and 24 h, read-out: inhibition of the downstream signaling measured by p-ERK
Procedure: PC-9 cells were treated with Compound 006 (DGY-12-161) in the 6-well plate at indicated concentrations for 8 h and 24 h, respectively. The intensities of the bands were quantified in LICOR Odyssey® CLx Imaging System. PC-9 cells are KRAS wild-type.

MIA-PaCa-2 cells = test: Anti-proliferative activity in MIA-PaCa-2 cells (CellTiter-Glo); settings: Homo sapiens, 72 h, MIA-PaCa-2 cells (KRAS G12C), three days, read-out: IC50 (cell viability)
Procedure: MIA-PaCa-2 cells were treated with KRAS inhibitors at the density of 800 cells/well in 384-well plate for three days. Cell viability was evaluated using CellTiter-Glo® Luminescent Cell Viability Assay.

[2] = tested on: downstream signaling (p-ERK) in PANC-1 cells (KRAS G12D); test: Downstream evaluation in PANC-1 cells (p-ERK immunoblot); settings: Homo sapiens, 8 h and 24 h, read-out: IC50 of inhibition of downstream signaling
Procedure: PANC-1 cells were treated with Compound 006 (DGY-12-161) in the 6-well plate at indicated concentrations for 8 h and 24 h, respectively. The intensities of the bands were quantified in LICOR Odyssey® CLx Imaging System. PANC-1 cells harbor KRAS G12D mutation.

| SMILES | IC50 (AGS cells) [µM] | inhibition at 10 µM [1] [%] | IC50 (MIA-PaCa-2 cells) [µM] | IC50 [2] [µM] |
| --- | --- | --- | --- | --- |
| CN(C)C1CN(c2nc(N3[C@@H]4CC[C@H]3CNC4)c3cc(Cl)c(-c4cc(O)cc5ccccc45)c(F)c3n2)C1 [Compound 006, 4-(4-((1R,5S)-3,8-diazabicyclo[3.2.1]octan-8-yl)-6-chloro-2-(3-(dimethylamino)azetidin-1-yl)-8-fluoroquinazolin-7-yl)naphthalen-2-ol] | 1.4 | ~50 | 2.2 | < 10 |
| Oc1cc(-c2c(Cl)cc3c(N4[C@@H]5CC[C@H]4CNC5)nc(OCC45CCCN4CCC5)nc3c2F)c2ccccc2c1 [Compound 001, 4-(4-((1R,5S)-3,8-diazabicyclo[3.2.1]octan-8-yl)-6-chloro-8-fluoro-2-((tetrahydro-1H-pyrrolizin-7a(5H)-yl)methoxy)quinazolin-7-yl)naphthalen-2-ol] | 0.6 | – | 2.3 | – |
